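How tested: cells in 96-well plates exposed to compound for 48 hours at five concentrations. Abbreviation: GI50, concentration required for 50% inhibition of growth.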 Activity calls are given as the source filed them. Rule as the data show it: active = GI50 up to about 1.1 µM and inactive = higher.
What was measured:
Experiment in all cases: DTP human tumour cell line panel, 48 h
A498 = test system: A498
ACHN = test system: ACHN
COLO 205 = test system: COLO 205
HCT-116 = test system: HCT-116
HOP-92 = test system: HOP-92
IGROV-1 = test system: IGROV-1
KM12 = test system: KM12
LOX IMVI = test system: LOX IMVI
NCI-H23 = test system: NCI-H23
NCI-H460 = test system: NCI-H460
PC-3 = test system: PC-3
RXF 393 = test system: RXF 393
SF-539 = test system: SF-539
SNB-75 = test system: SNB-75
SW-620 = test system: SW-620
TK-10 = test system: TK-10
U-251 = test system: U-251
UACC-257 = test system: UACC-257
CCRF-CEM = test system: CCRF-CEM
MOLT-4 = test system: MOLT-4

Measured: GI50

N=C(N)SCc1cccc(-c2nc3ccccc3c(=O)o2)c1
inactive: A498 > 100 µM | ACHN > 100 µM | COLO 205 > 100 µM | HCT-116 > 100 µM | HOP-92 > 100 µM | IGROV-1 > 100 µM | KM12 > 100 µM | LOX IMVI > 100 µM | NCI-H23 > 100 µM | NCI-H460 > 100 µM | PC-3 > 100 µM | RXF 393 > 100 µM | SF-539 > 100 µM | SNB-75 > 100 µM | SW-620 > 100 µM | TK-10 > 100 µM | U-251 > 100 µM | UACC-257 > 100 µM

C=CCC(SC)C1=C(C)C(=O)c2ccccc21 (centres undefined)
inactive: A498 > 10 µM | ACHN > 10 µM | CCRF-CEM 6.55 µM | HOP-92 > 10 µM | IGROV-1 > 10 µM | KM12 > 10 µM | LOX IMVI > 10 µM | MOLT-4 > 10 µM | NCI-H23 > 10 µM | NCI-H460 > 10 µM | PC-3 > 10 µM | RXF 393 > 10 µM | SF-539 > 10 µM | SW-620 > 10 µM | TK-10 > 10 µM | U-251 > 10 µM | UACC-257 > 10 µM

Cc1cc2c(c(/C=N/Cc3ccccc3)c1)OC1(C=C2)Oc2ccccc2C(=O)N1C (centres undefined)
inactive: A498 23.9 µM | ACHN 20.7 µM | CCRF-CEM 11.6 µM | COLO 205 17.9 µM | HCT-116 21 µM | HOP-92 17.5 µM | IGROV-1 22 µM | KM12 25.2 µM | LOX IMVI 17.4 µM | MOLT-4 4.5 µM | NCI-H23 24.8 µM | NCI-H460 25.1 µM | PC-3 24.7 µM | RXF 393 20 µM | SNB-75 16.4 µM | SW-620 33.6 µM | TK-10 26 µM | U-251 29.4 µM | UACC-257 25.8 µM

CC1=NN(C(=O)CSc2nnc(SCC(=O)N3N=C(C)CC3(O)c3ccccc3)s2)C(O)(c2ccccc2)C1 (centres undefined)
inactive: A498 > 100 µM | ACHN 34.8 µM | CCRF-CEM 18.7 µM | COLO 205 32.1 µM | HCT-116 30.9 µM | HOP-92 33.7 µM | IGROV-1 25.1 µM | KM12 26.7 µM | LOX IMVI 22.8 µM | MOLT-4 32.3 µM | NCI-H23 34 µM | NCI-H460 27.6 µM | PC-3 34.5 µM | RXF 393 24.9 µM | SW-620 > 100 µM | TK-10 54.3 µM | U-251 > 100 µM | UACC-257 43.8 µM

CCOC(=O)C1=C(C)N(Cc2ccccc2)C2(O)C=CC(=O)C3C(=O)N(c4ccccc4)C(=O)C132 (centres undefined)
active: CCRF-CEM 0.735 µM
inactive: A498 14.5 µM | ACHN 1.63 µM | COLO 205 1.51 µM | HCT-116 1.15 µM | HOP-92 2.24 µM | IGROV-1 2 µM | KM12 1.99 µM | LOX IMVI 1.36 µM | MOLT-4 2.11 µM | NCI-H23 2.56 µM | NCI-H460 1.81 µM | PC-3 1.92 µM | RXF 393 1.35 µM | SF-539 1.6 µM | TK-10 3.44 µM | U-251 2.69 µM | UACC-257 2.04 µM

[O-][N+]1=C(c2ccccc2)/C(=C2/C(c3ccccc3)=[N+]([O-])c3ccccc32)Cc2ccccc21
inactive: A498 5.52 µM | ACHN 20.9 µM | CCRF-CEM 13.1 µM | COLO 205 17.3 µM | HCT-116 17.1 µM | HOP-92 15.2 µM | IGROV-1 16.4 µM | KM12 18.7 µM | LOX IMVI 16.7 µM | MOLT-4 22.8 µM | NCI-H23 15.5 µM | PC-3 12.9 µM | RXF 393 33.1 µM | SF-539 24.2 µM | SNB-75 15.5 µM | SW-620 22.4 µM | TK-10 18.2 µM | U-251 14.5 µM | UACC-257 18.3 µM

Cc1nc2sc3ccccc3n2c(=O)c1/N=N/c1ccc(Br)cc1
inactive: A498 43.3 µM | ACHN > 100 µM | CCRF-CEM 77.8 µM | COLO 205 > 100 µM | HCT-116 > 100 µM | HOP-92 76.4 µM | IGROV-1 > 100 µM | KM12 > 100 µM | LOX IMVI 54.8 µM | MOLT-4 55.8 µM | NCI-H23 > 100 µM | NCI-H460 > 100 µM | PC-3 51.5 µM | RXF 393 > 100 µM | SF-539 > 100 µM | SNB-75 > 100 µM | SW-620 > 100 µM | TK-10 > 100 µM | U-251 > 100 µM | UACC-257 > 100 µM

COc1ccc2c3c1OC1c4[nH]c5ccccc5c4CC4(O)C(C2)N(C)CCC314 (centres undefined)
inactive: A498 15.3 µM | ACHN 20.6 µM | CCRF-CEM 24.2 µM | COLO 205 18.4 µM | HCT-116 32.3 µM | HOP-92 14.3 µM | IGROV-1 64.1 µM | KM12 30.3 µM | LOX IMVI 20.1 µM | MOLT-4 16.7 µM | NCI-H23 > 100 µM | NCI-H460 22 µM | PC-3 37.2 µM | RXF 393 20 µM | SNB-75 29.3 µM | SW-620 39.1 µM | TK-10 22.9 µM | U-251 21 µM | UACC-257 17.3 µM

CC(=O)O[C@@H]1C[C@]2(C(=O)c3ccccc3)C(=O)C(=O)S[C@]12c1ccccc1
inactive: A498 40.2 µM | ACHN 62.2 µM | COLO 205 38.3 µM | HCT-116 46.6 µM | HOP-92 47.8 µM | IGROV-1 45.4 µM | KM12 41.1 µM | LOX IMVI 34.3 µM | MOLT-4 28.4 µM | NCI-H23 45 µM | NCI-H460 45.6 µM | PC-3 36.5 µM | RXF 393 25.9 µM | SF-539 24.2 µM | SNB-75 44 µM | SW-620 31.6 µM | TK-10 55.7 µM | U-251 31.3 µM | UACC-257 55.8 µM

O=c1c2ccccc2nc(N/N=C/c2ccccc2O)n1-c1ccccc1
inactive: A498 > 100 µM | ACHN 3.62 µM | CCRF-CEM 3.27 µM | COLO 205 3.99 µM | HCT-116 2.88 µM | HOP-92 13 µM | IGROV-1 5.6 µM | LOX IMVI 4.04 µM | NCI-H23 6.21 µM | NCI-H460 4.01 µM | PC-3 3.57 µM | RXF 393 17.1 µM | SF-539 5.31 µM | SNB-75 11 µM | SW-620 5.75 µM | TK-10 6.43 µM | U-251 5.2 µM | UACC-257 5.04 µM

COC(=O)[C@H]1NC(=O)CCSSC1(C)C
inactive: A498 > 100 µM | ACHN > 100 µM | CCRF-CEM > 100 µM | COLO 205 > 100 µM | HCT-116 > 100 µM | HOP-92 > 100 µM | IGROV-1 > 100 µM | KM12 > 100 µM | LOX IMVI > 100 µM | MOLT-4 > 100 µM | NCI-H23 > 100 µM | PC-3 > 100 µM | RXF 393 > 100 µM | SF-539 > 100 µM | SW-620 > 100 µM | TK-10 > 100 µM | U-251 > 100 µM | UACC-257 > 100 µM

COC(=O)[C@H](Cc1ccccc1)NC(=O)c1ccc(CNC(=O)/C=C/c2ccc(-c3ccccc3)cc2)cc1
inactive: A498 > 100 µM | ACHN > 100 µM | CCRF-CEM 6.62 µM | COLO 205 > 100 µM | HCT-116 4.95 µM | HOP-92 80.9 µM | IGROV-1 > 100 µM | KM12 > 100 µM | MOLT-4 > 100 µM | NCI-H23 27.8 µM | NCI-H460 > 100 µM | PC-3 > 100 µM | RXF 393 11.1 µM | SNB-75 10.5 µM | SW-620 > 100 µM | TK-10 68.1 µM | U-251 5.97 µM | UACC-257 > 100 µM

CCOC(=O)C(C(=O)OCC)C(NC(=O)Nc1cc(C(F)(F)F)ccc1OC)(C(F)(F)F)C(F)(F)F
inactive: A498 16.5 µM | ACHN 29.1 µM | CCRF-CEM 20.8 µM | COLO 205 17.8 µM | HCT-116 36.2 µM | HOP-92 25.5 µM | IGROV-1 25.4 µM | KM12 26.9 µM | LOX IMVI 29.8 µM | MOLT-4 24 µM | NCI-H23 35.3 µM | NCI-H460 31.5 µM | PC-3 39.6 µM | RXF 393 30.3 µM | SF-539 19.5 µM | SW-620 24.6 µM | TK-10 59 µM | U-251 29.2 µM | UACC-257 39.5 µM

CC(C)c1c(O[Si](C(C)C)(C(C)C)C(C)C)cc2c(c1O)CC[C@H]1C(C)(C)CCC[C@]21C
inactive: A498 > 100 µM | ACHN > 100 µM | CCRF-CEM 49.5 µM | COLO 205 > 100 µM | HCT-116 > 100 µM | HOP-92 > 100 µM | IGROV-1 > 100 µM | KM12 > 100 µM | LOX IMVI > 100 µM | MOLT-4 43.9 µM | NCI-H23 97.5 µM | NCI-H460 > 100 µM | PC-3 > 100 µM | RXF 393 > 100 µM | SF-539 > 100 µM | SNB-75 50.6 µM | SW-620 > 100 µM | TK-10 6.12 µM | U-251 > 100 µM | UACC-257 > 100 µM

COc1ccc(/N=c2/[nH]c(N)c(C(=O)c3ccc(OC)cc3)s2)cc1
inactive: HOP-92 25.1 µM | TK-10 15.1 µM | UACC-257 > 100 µM
active: A498 0.46 µM | CCRF-CEM 0.183 µM | COLO 205 0.279 µM | HCT-116 0.365 µM | IGROV-1 0.471 µM | KM12 0.378 µM | LOX IMVI 0.596 µM | MOLT-4 0.0851 µM | NCI-H23 0.508 µM | NCI-H460 0.347 µM | PC-3 0.284 µM | RXF 393 0.324 µM | SF-539 0.313 µM | SNB-75 0.31 µM | SW-620 0.273 µM | U-251 0.31 µM
